Experimental findings from patent US12466820B2, “Amino quinazoline derivatives as P2X3 inhibitors” (CHIESI FARMACEUTICI S.p.A., priority 2019, dated 2025) are described below.

Each structure is given as a SMILES string.

This assay addresses T1, h P2X3 (Homo sapiens, UniProt P56373).
T1 sequence (P56373 1-397): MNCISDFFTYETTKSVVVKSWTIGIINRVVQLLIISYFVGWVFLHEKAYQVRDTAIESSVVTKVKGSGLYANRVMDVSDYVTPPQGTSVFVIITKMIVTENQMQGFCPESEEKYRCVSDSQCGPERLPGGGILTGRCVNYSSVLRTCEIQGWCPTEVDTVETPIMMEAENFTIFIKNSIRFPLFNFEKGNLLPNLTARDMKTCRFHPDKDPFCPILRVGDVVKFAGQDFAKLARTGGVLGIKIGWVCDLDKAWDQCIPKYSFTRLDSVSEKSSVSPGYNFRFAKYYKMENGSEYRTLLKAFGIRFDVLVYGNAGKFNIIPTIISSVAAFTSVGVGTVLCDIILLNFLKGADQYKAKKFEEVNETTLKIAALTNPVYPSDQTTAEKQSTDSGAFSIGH
In words: In vitro electrophysiology assay for P2X3 (automated whole-cell patch clamp, Sophion Qube). It counts as cell-based. As to conditions: Table 6; range of activity; inhibition of P2X3 current, agonist α,β-MeATP (800 nM). As for the experimental part:
Pharmacological Activity of the Compounds of the Invention In Vitro Electrophysiology Assay for P2X3
Cells expressing P2X3 receptors were grown according to standard practice and maintained at 37° C. in a 5% humidified CO2 atmosphere. The cells were seeded into T175 flask 2 days prior to the day of the assay and dissociated from the flasks using TrypLE when grown to confluence of 80-90%. The dissociated cells were resuspended in serum free media at a cell density of 3×10^6 cells/ml and loaded onto the Sophion Qube automated patch-clamp system. The extracellular assay buffer contained 145 mM NaCl, 4 mM KCl, 2 mM CaCl2), 1 mM MgCl2, 10 mM HEPES, and 10 mM glucose at pH 7.4. The intracellular assay solution contained 140 mM CsF, 10 mM NaCl, 10 mM EGTA, 10 mM HEPES at pH 7.2. Agonist stock solutions were prepared in H2O and diluted in bath solution prior to use. All antagonists were prepared as 10 mM stock solutions in DMSO and diluted in bath solution prior to use. All experiments were performed under the whole-cell patch clamp configuration at room temperature with 384 individual cells being voltage clamped at −60 mV simultaneously on the Sophion Qube instrument. Two baseline responses were established with the application of α,β-MeATP (800 nM), with the subsequent agonist applications being washed out using extracellular assay buffer containing 0.5 U/ml apyrase. Following the second agonist application, antagonist was incubated in the absence of α,β-MeATP for 10 minutes. After antagonist preincubation, 800 nM α,β-MeATP and antagonist were co-administered to determine the inhibitory effect of the antagonist. One concentration of an antagonist was assessed against a single cell, with different concentrations of the antagonist applied to other cells on the 384 recording substrate. The control P2X3 current amplitude was taken from the peak current amplitude from the second agonist response prior to preincubation with antagonist. The peak P2X3 current amplitude in the presence of antagonist was used to calculate the inhibitory effect at each concentration of the antagonist according to the following equation: […]
Concentration-response curves were constructed from ten different concentrations with each concentration of antagonist tested on at least two individual cells. The concentration of the antagonist to inhibit P2X3 current by 50% (IC50) was determined by fitting the data with the following equation: […]
Where ‘a’ is minimum response, ‘b’ is maximum response, ‘c’ is IC50 and ‘d’ is Hill slope.
The results for individual compounds are provided below in Table 6 and are expressed as range of activity.
The activity of the comparative examples A and B have been tested in the in vitro Electrophysiology Assay for P2X3 as described above.
(The patch-clamp technique gives a direct electrical read-out from membranes.)
In turn, `COc1cc(-c2ncc(C)s2)cc2c(NCc3nnc(C)s3)ncnc12` [Example 114, 8-methoxy-N-((5-methyl-1,3,4-thiadiazol-2-yl)methyl)-6-(5-methylthiazol-2-yl)quinazolin-4-amine] returned an IC50 of less than 316 nM.

On to `COc1cc(-c2ncc(F)cn2)cc2c(NC(C)c3nnc(C)o3)ncnc12` (stereo not shown) [Example 110, 6-(5-fluoropyrimidin-2-yl)-8-methoxy-N-(1-(5-methyl-1,3,4-oxadiazol-2-yl)ethyl)quinazolin-4-amine], for which the IC50 is 316 to 3160 nM.

As for `Cc1nc([C@@H](C)Nc2ncnc3c(OC4CCOCC4)cc(-c4ccc(F)cn4)cc23)no1` [Example 82, 6-(5-fluoro-2-pyridyl)-N-[(1R)-1-(5-methyl-1,2,4-oxadiazol-3-yl)ethyl]-8-tetrahydropyran-4-yloxy-quinazolin-4-amine], the IC50 is less than 316 nM.

With `Cc1nnc([C@@H](C)Nc2ncnc3c(S(=O)(=O)N(C)C)cc(-c4ccc(F)cc4)cc23)s1` (stereo in doubt) [Example 12, 6-(4-fluorophenyl)-N,N-dimethyl-4-((1-(5-methyl-1,3,4-thiadiazol-2-yl)ethyl)amino)quinazoline-8-sulfonamide], the IC50 is less than 316 nM.

Take `COc1cc(-c2ccc(F)cn2)cc2c(NC(C)c3nc(C)no3)ncnc12` (single isomer, unassigned) [Example 175, 6-(5-fluoropyridin-2-yl)-8-methoxy-N-(1-(3-methyl-1,2,4-oxadiazol-5-yl)ethyl)quinazolin-4-amine]: the IC50 is 316 to 3160 nM.

Regarding `C[C@@H](Nc1ncnc2c(-c3cncnc3)cc(-c3ccc(F)cc3)cc12)c1cnc(C(F)(F)F)nc1` [Example 25, (R)-6-(4-fluorophenyl)-8-(pyrimidin-5-yl)-N-(1-(2-(trifluoromethyl)pyrimidin-5-yl)ethyl)quinazolin-4-amine], the IC50 was less than 316 nM.

For the compound `C[C@@H](Nc1ncnc2c(C3=CCNCC3)cc(-c3ccc(F)cc3)cc12)c1cnc(C(F)(F)F)nc1` [Example 27, (R)-6-(4-fluorophenyl)-8-(1,2,3,6-tetrahydropyridin-4-yl)-N-(1-(2-(trifluoro-methyl)pyrimidin-5-yl)ethyl)quinazolin-4-amine], the IC50 was less than 316 nM.

Turning to `COc1cc(-c2ccc(F)cn2)cc2c(NCc3ccn(C)c(=O)c3)ncnc12` [Example 147, 4-(((6-(5-fluoropyridin-2-yl)-8-methoxyquinazolin-4-yl)amino)methyl)-1-methylpyridin-2(1H)-one], the 50% inhibitory concentration (IC50) lay within 316 to 3160 nM.

The compound `COc1cc(-c2ncc(C)s2)cc2c(NCc3ccn(C)c(=O)c3)ncnc12` [Example 115, 4-(((8-methoxy-6-(5-methylthiazol-2-yl)quinazolin-4-yl)amino)methyl)-1-methylpyridin-2(1H)-one] showed an IC50 of less than 316 nM.

Compound `COc1cc(-n2cc(Cl)cn2)cc2c(N[C@H](C)c3cnc(C(F)(F)F)nc3)ncnc12` [Example 104, (R)-6-(4-chloro-1H-pyrazol-1-yl)-8-methoxy-N-(1-(2-(trifluoromethyl)pyrimidin-5-yl)ethyl)quinazolin-4-amine] displayed an IC50 of less than 316 nM.

For `Cc1cnc(-c2cc(OC3CCOCC3)c3ncnc(NC(C)c4nnc(C)s4)c3c2)s1` (stereo not shown) [Example 81, N-[1-(5-methyl-1,3,4-thiadiazol-2-yl)ethyl]-6-(5-methylthiazol-2-yl)-8-tetrahydropyran-4-yloxy-quinazolin-4-amine], the 50% inhibitory concentration (IC50) fell in the range of 316 to 3160 nM.

`Cc1cnc(-c2cc(OC3CCOCC3)c3ncnc(NCc4ccc(C)nn4)c3c2)nc1` [Example 31, N-[(6-methylpyridazin-3-yl)methyl]-6-(5-methylpyrimidin-2-yl)-8-tetrahydropyran-4-yloxy-quinazolin-4-amine] showed a 50% inhibitory concentration (IC50) of 316 to 3160 nM.

For `Cc1nnc([C@@H](C)Nc2ncnc3c(S(=O)(=O)N4CCOCC4)cc(-c4ccc(F)cc4)cc23)s1` (racemic) [Example 10, (Rac)-6-(4-fluorophenyl)-N-(1-(5-methyl-1,3,4-thiadiazol-2-yl)ethyl)-8-(morpholinosulfonyl)quinazolin-4-amine], the IC50 is less than 316 nM.

Take `Cc1ccc(CNc2ncnc3c(-c4ccnn4C)cc(-c4ccc(F)cc4)cc23)nn1` [Example 94, 6-(4-fluorophenyl)-8-(2-methylpyrazol-3-yl)-N-[(6-methylpyridazin-3-yl)methyl]quinazolin-4-amine]: the IC50 lay in the range of 316 to 3160 nM.

In turn, `COc1cc(-c2ccc(F)cc2)cc2c(NC(C)c3nc(-c4ccncc4)no3)ncnc12` (single isomer, unassigned) [Example 192, 6-(4-fluorophenyl)-8-methoxy-N-(1-(3-(pyridin-4-yl)-1,2,4-oxadiazol-5-yl)ethyl)quinazolin-4-amine] registered an IC50 of 3160 to 31600 nM.

As for `COc1cc(-c2ccc(F)cn2)cc2c(NCc3cc(C)on3)ncnc12` [Example 138, 6-(5-fluoro-2-pyridyl)-8-methoxy-N-[(5-methylisoxazol-3-yl)methyl]quinazolin-4-amine], the IC50 was in the range of 316 to 3160 nM.

For `Cc1ccc(CNc2ncnc3c(OC4CCOCC4)cc(-c4ncc(C)s4)cc23)nn1` [Example 38, N-[(6-methylpyridazin-3-yl)methyl]-6-(5-methylthiazol-2-yl)-8-tetrahydropyran-4-yloxy-quinazolin-4-amine], the IC50 lay within 316 to 3160 nM.

In the case of `COc1cc(-c2ncc(C)s2)cc2c(NC(C)c3nnc(C)s3)ncnc12` (single isomer, unassigned) [Example 165, 8-methoxy-N-(1-(5-methyl-1,3,4-thiadiazol-2-yl)ethyl)-6-(5-methylthiazol-2-yl)quinazolin-4-amine], the IC50 was less than 316 nM.

On to `COc1cc(-c2ccc(F)cc2)cc2c(NC(C)c3cccc(=O)[nH]3)ncnc12` (stereo not shown) [Example 1, 6-(1-((6-(4-Fluorophenyl)-8-methoxyquinazolin-4-yl)amino)ethyl)pyridin-2(1H)-one], for which the IC50 was less than 316 nM.

Compound `Cc1ccc(-c2cc(OC3CCOCC3)c3ncnc(NC(C)c4nnc(C)s4)c3c2)nc1` (single isomer, unassigned) [Example 83, 6-(5-methyl-2-pyridyl)-N-[1-(5-methyl-1,3,4-thiadiazol-2-yl)ethyl]-8-tetrahydropyran-4-yloxy-quinazolin-4-amine] registered a concentration for half-maximal inhibition (IC50) of 316 to 3160 nM.

In turn, `COc1cc(-c2ccc(F)cn2)cc2c(NCc3nc(C)no3)ncnc12` [Example 133, 6-(5-fluoropyridin-2-yl)-8-methoxy-N-((3-methyl-1,2,4-oxadiazol-5-yl)methyl)quinazolin-4-amine] returned an IC50 of 316 to 3160 nM.

Consider `COc1cc(-n2cc(F)cn2)cc2c(N[C@H](C)c3ccc(C)nn3)ncnc12` [Example 98, (R)-6-(4-fluoro-1H-pyrazol-1-yl)-8-methoxy-N-(1-(6-methylpyridazin-3-yl)ethyl)quinazolin-4-amine], for which the IC50 lay in the range of 316 to 3160 nM.

In turn, `COc1cc(-c2ccn(C)n2)cc2c(NC(C)c3nnc(C)o3)ncnc12` (stereo not shown) [Example 105] came in with an IC50 of 316 to 3160 nM.

As to `COc1cc(-c2ncc(C)cn2)cc2c(NC(C)c3nnc(C)s3)ncnc12` (single isomer, unassigned) [Example 124, 8-Methoxy-6-(5-methylpyrimidin-2-yl)-N-[1-(5-methyl-1,3,4-thiadiazol-2-yl)ethyl]quinazolin-4-amine], the IC50 lay within 316 to 3160 nM.

As for `Cc1ccc(CNc2ncnc3c(OCC4COC4)cc(-c4ncc(C)s4)cc23)nn1` [Example 37, N-((6-methylpyridazin-3-yl)methyl)-6-(5-methylthiazol-2-yl)-8-(oxetan-3-ylmethoxy)quinazolin-4-amine], the IC50 was less than 316 nM.

The term IC50 denotes the concentration that gives 50% inhibition. Higher therefore signals a need for much substance.
